Test results reported in patent US20250114486A1, “MARKED FATTY ACID DERIVATIVE, PRECURSOR COMPOUND THEREOF, AND USE THEREOF IN CONTRAST AGENT” (BEIJING NORMAL UNIVERSITY, priority 2022, published 2025).

Experiment: In vivo biodistribution of radioactive ^99mTc complexes in female SD rats
Set-up: species or system female Sprague-Dawley (SD) rats
Settings: for Biodistribution: Large Intestine / Biodistribution: Small Intestine / Biodistribution: Stomach: unit % ID
Description: Female SD rats (180-220 g, n=3) were fasted for 12 h before the experiment, and the purified radioactive 99mTc complexes 78-81 were prepared into physiological saline (containing 10% ethanol) solutions of about 250-350 μCi/mL. 200 μL of the above solution was injected into the tail vein of female SD rats, and the rats were killed by cervical dislocation at five time points, 15, 30, 60, 120 and 240 min after the tail vein injection. The blood, brain, heart, liver, spleen, lung, kidney, muscle, bone, large intestine, small intestine, stomach and tail were collected, weighed and counted, and the count distribution of each tissue and organ was calculated (unit: % ID/g, the unit of large intestine, small intestine and stomach is % ID), and the data are the mean±standard deviation of three mice in each phase. At the same time, 200 μL of the above solution was diluted to 20 mL, which was used as the % ID without deducting the tail count.

Question: What does the source list for `COC(C)(C)C[N+]#[C][99Tc-5]([C]#[N+]CC(C)(C)OC)([C]#[N+]CC(C)(C)OC)([C]#[N+]CC(C)(C)OC)([C]#[N+]CC(C)(C)OC)[C]#[N+]CC(C)(C)OCCCCCSCCCCC(=O)O` [^99mTc complex 80]?
Answer: Biodistribution: Blood (15 min post-injection): 0.018 ± 0.003 ID %/g; Biodistribution: Bone (15 min post-injection): 0.11 ± 0.05 ID %/g; Biodistribution: Brain (15 min post-injection): 0.008 ± 0.004 ID %/g; Biodistribution: Heart (15 min post-injection): 0.94 ± 0.16 ID %/g; Biodistribution: Kidney (15 min post-injection): 2.43 ± 0.10 ID %/g; Biodistribution: Liver (15 min post-injection): 0.49 ± 0.03 ID %/g; Biodistribution: Lungs (15 min post-injection): 0.14 ± 0.04 ID %/g; Biodistribution: Muscle (15 min post-injection): 0.14 ± 0.04 ID %/g; Biodistribution: Spleen (15 min post-injection): 0.23 ± 0.06 ID %/g; Heart-to-Blood ratio (15 min post-injection): 53.37 ± 6.93; Heart-to-Liver ratio (15 min post-injection): 1.91 ± 0.40; Heart-to-Lungs ratio (15 min post-injection): 7.04 ± 1.69; absolute myocardial uptake value (15 min post-injection): 0.94±0.16 % ID/g; Biodistribution: Large Intestine (15 min post-injection): 5.34 ± 1.37 % ID; Biodistribution: Small Intestine (15 min post-injection): 8.49 ± 0.85 % ID; Biodistribution: Stomach (15 min post-injection): 0.27 ± 0.09 % ID; Biodistribution: Blood (30 min post-injection): 0.026 ± 0.003 ID %/g; Biodistribution: Bone (30 min post-injection): 0.10 ± 0.01 ID %/g; Biodistribution: Brain (30 min post-injection): 0.010 ± 0.003 ID %/g; Biodistribution: Heart (30 min post-injection): 1.42 ± 0.32 ID %/g; Biodistribution: Kidney (30 min post-injection): 4.66 ± 0.51 ID %/g; Biodistribution: Liver (30 min post-injection): 1.01 ± 0.29 ID %/g; Biodistribution: Lungs (30 min post-injection): 0.32 ± 0.04 ID %/g; Biodistribution: Muscle (30 min post-injection): 0.22 ± 0.07 ID %/g; Biodistribution: Spleen (30 min post-injection): 0.26 ± 0.06 ID %/g; Heart-to-Blood ratio (30 min post-injection): 54.80±11.86; Heart-to-Liver ratio (30 min post-injection): 1.48 ± 0.45; Heart-to-Lungs ratio (30 min post-injection): 4.40 ± 0.64; absolute myocardial uptake value (30 min post-injection): 1.42±0.32 % ID/g; Biodistribution: Large Intestine (30 min post-injection): 6.69 ± 0.68 % ID; Biodistribution: Small Intestine (30 min post-injection): 10.71 ± 1.89 % ID; Biodistribution: Stomach (30 min post-injection): 0.53 ± 0.07 % ID; Biodistribution: Blood (60 min post-injection): 0.013 ± 0.003 ID %/g; Biodistribution: Bone (60 min post-injection): 0.064 ± 0.004 ID %/g; Biodistribution: Brain (60 min post-injection): 0.011 ± 0.005 ID %/g; Biodistribution: Heart (60 min post-injection): 2.06 ± 0.06 ID %/g; Biodistribution: Kidney (60 min post-injection): 2.39 ± 0.58 ID %/g; Biodistribution: Liver (60 min post-injection): 0.33 ± 0.09 ID %/g; Biodistribution: Lungs (60 min post-injection): 0.22 ± 0.03 ID %/g; Biodistribution: Muscle (60 min post-injection): 0.48 ± 0.06 ID %/g; Biodistribution: Spleen (60 min post-injection): 0.16 ± 0.06 ID %/g; Heart-to-Blood ratio (60 min post-injection): 164.01±43.51; Heart-to-Liver ratio (60 min post-injection): 6.43±1.85; Heart-to-Lungs ratio (60 min post-injection): 9.48±1.39; absolute myocardial uptake value (60 min post-injection): 2.06 0.06 % ID/g; Biodistribution: Large Intestine (60 min post-injection): 12.36 ± 2.55 % ID; Biodistribution: Small Intestine (60 min post-injection): 6.75 ± 1.89 % ID; Biodistribution: Stomach (60 min post-injection): 0.56 ± 0.27 % ID; Biodistribution: Blood (120 min post-injection): 0.009 ± 0.001 ID %/g; Biodistribution: Bone (120 min post-injection): 0.07 ± 0.02 ID %/g; Biodistribution: Brain (120 min post-injection): 0.010 ± 0.005 ID %/g; Biodistribution: Heart (120 min post-injection): 1.73 ± 0.09 ID %/g; Biodistribution: Kidney (120 min post-injection): 1.30 ± 0.41 ID %/g; Biodistribution: Liver (120 min post-injection): 0.18 ± 0.01 ID %/g; Biodistribution: Lungs (120 min post-injection): 0.16 ± 0.01 ID %/g; Biodistribution: Muscle (120 min post-injection): 0.34 ± 0.03 ID %/g; Biodistribution: Spleen (120 min post-injection): 0.15 ± 0.01 ID %/g; Heart-to-Blood ratio (120 min post-injection): 197.36±32.29; Heart-to-Liver ratio (120 min post-injection): 9.68±0.76; Heart-to-Lungs ratio (120 min post-injection): 11.40±3.06; absolute myocardial uptake value (120 min post-injection): 1.73±0.09 % ID/g
